Key:
Assay type in all cases: cell-based, mouse
[1] = system: α7 integrin (LacZ reporter in α7βgal+/− myoblasts); assay: Myoblast α7+/LacZ integrin FDG assay (Burkin assay in myoblasts, 96-well); details: α7+/LacZ myoblasts, 96-well
[2] = system: β-galactosidase in CMV-LacZ C2C12 myotubes; assay: CMV-LacZ secondary screen in C2C12 myotubes (β-Gal stabilizing assay); details: for CMV-LACZ in Myotubes, signal relative to DMSO: C2C12 CMV-LacZ myotubes, fold relative to DMSO; for CMV-LACZ in Myotubes (β-galactosidase activity relative to DMSO): CMV-LacZ C2C12 myotubes, 96-well format
Method in brief: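 First, C2C12 myoblasts were transfected with a linearized CMV-LACZ vector and clonal lines selected by FDG β-gal assay. Then cells were exposed to compounds at 0.5, 1, 5, 10, 20 and 40 μM in 96-well format, two replicates each, and β-gal measured.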

[3] = system: α7 integrin (LacZ reporter in α7+/LacZ myotubes); assay: Myotube α7 integrin FDG assay (Burkin assay in myotubes, 96-well); details: myotubes

Row | Compound | CMV-LACZ in Myotubes, signal relative to DMSO ([2]; 5 uM) | CMV-LACZ in Myotubes, signal relative to DMSO ([2]; 10 uM) | CMV-LACZ in Myotubes, signal relative to DMSO ([2]; 20 uM) | CMV-LACZ in Myotubes, signal relative to DMSO ([2]; 40 uM) | Burkin Assay in Myoblasts, value relative to DMSO ([1]; 0.5 uM) | Burkin Assay in Myoblasts, value relative to DMSO ([1]; 1 uM) | Burkin Assay in Myoblasts, value relative to DMSO ([1]; 5 uM) | Burkin Assay in Myoblasts, value relative to DMSO ([1]; 10 uM) | Burkin Assay in Myoblasts, value relative to DMSO ([1]; 20 uM) | Burkin Assay in Myoblasts, value relative to DMSO ([1]; 40 uM) | Burkin Assay in Myotubes (signal relative to DMSO) ([3]; 0.5 uM) | Burkin Assay in Myotubes (signal relative to DMSO) ([3]; 1 uM) | Burkin Assay in Myotubes (signal relative to DMSO) ([3]; 5 uM) | Burkin Assay in Myotubes (signal relative to DMSO) ([3]; 10 uM) | Burkin Assay in Myotubes (signal relative to DMSO) ([3]; 20 uM) | Burkin Assay in Myotubes (signal relative to DMSO) ([3]; 40 uM) | further results
1 | Cc1ccc(C(=O)C(C)OC(=O)CNC(=O)c2ccc(Br)o2)cc1 (centres unmarked) [MLS001160885-01] | 1.167 | 0.9009 | 0.9095 | 0.8319 |  |  |  |  |  |  |  |  |  |  |  |  | Burkin Assay in Myoblasts, signal relative to DMSO ([1]; 0.5 uM): 1.05; Burkin Assay in Myoblasts, signal relative to DMSO ([1]; 1 uM): 0.9356; Burkin Assay in Myoblasts, signal relative to DMSO ([1]; 5 uM): 0.9402; Burkin Assay in Myoblasts, signal relative to DMSO ([1]; 10 uM): 0.9147; Burkin Assay in Myoblasts, signal relative to DMSO ([1]; 20 uM): 1.021; Burkin Assay in Myoblasts, signal relative to DMSO ([1]; 40 uM): 0.7914; Burkin Assay in Myotubes, α7 integrin LacZ reporter signal relative to DMSO ([3]; 0.5 uM): 1; Burkin Assay in Myotubes, α7 integrin LacZ reporter signal relative to DMSO ([3]; 1 uM): 0.9569; Burkin Assay in Myotubes, α7 integrin LacZ reporter signal relative to DMSO ([3]; 5 uM): 1.108; Burkin Assay in Myotubes, α7 integrin LacZ reporter signal relative to DMSO ([3]; 10 uM): 1.146; Burkin Assay in Myotubes, α7 integrin LacZ reporter signal relative to DMSO ([3]; 20 uM): 1.018; Burkin Assay in Myotubes, α7 integrin LacZ reporter signal relative to DMSO ([3]; 40 uM): 0.92
2 | CC(Oc1ccccc1)C(=O)N1CCN(C(=O)C(C)Oc2ccccc2)CC1 (centres unmarked) [MLS001162337-01] | 0.9904 | 0.9593 | 0.8491 | 1.05 | 1.123 | 1.127 | 1.091 | 1.071 | 0.8789 | 0.8149 | 0.6986 | 0.885 | 1.009 | 0.9738 | 1.17 | 1.014 | 
3 | COc1cc(Cl)cc(CN2CCC(CCC(=O)NC3CC3)CC2)c1OC [MLS001162872-01] | 0.7855 | 1.084 | 1.061 | 0.9794 | 0.9547 | 0.949 | 0.9025 | 0.904 | 0.783 | 0.7773 | 1.13 | 1.051 | 0.8369 | 1.031 | 1.034 | 0.8876 | 
4 | CCCCS(=O)(=O)N1CCCC(C(=O)NCCc2ccccc2)C1 (centres unmarked) [MLS001163121-01] |  |  |  |  | 1.049 | 1.012 | 0.9488 | 0.9907 | 0.8074 | 0.9157 | 1.052 | 0.9895 | 0.9395 | 1.173 | 1.07 | 1.09 | CMV-LACZ in Myotubes (β-galactosidase activity relative to DMSO) ([2]; 5 uM): 0.8506; CMV-LACZ in Myotubes (β-galactosidase activity relative to DMSO) ([2]; 10 uM): 0.8294; CMV-LACZ in Myotubes (β-galactosidase activity relative to DMSO) ([2]; 20 uM): 0.8781; CMV-LACZ in Myotubes (β-galactosidase activity relative to DMSO) ([2]; 40 uM): 0.9211
5 | COc1ccccc1-c1coc2c(CN3C(C)CCCC3C)c(O)ccc2c1=O (centres unmarked) [MLS001163140-01] | 1.029 | 1.061 | 0.9159 | 1.19 | 1.019 | 1.217 | 0.9966 | 1.098 | 0.935 | 0.9829 | 0.9236 | 1.035 | 0.9282 | 1.1264 | 0.9651 | 1.011 | 
